# Earlier results, collected in US20220331377A1, “DELIVERY VEHICLE FOR IN SITU DELIVERING OF PHARMACEUTICAL AGENTS” (priority 2019, published 2022).
# Test system: C. difficile
# Conditions: patients; P=0.05; cited from earlier work
compound,measurement,value
CN[C@H](CC(C)C)C(=O)N[C@H]1C(=O)N[C@@H](CC(N)=O)C(=O)N[C@H]2C(=O)N[C@H]3C(=O)N[C@H](C(=O)N[C@H](C(=O)O)c4cc(O)cc(O)c4-c4cc3ccc4O)[C@H](O)c3ccc(c(Cl)c3)Oc3cc2cc(c3O[C@@H]2O[C@H](CO)[C@@H](O)[C@H](O)[C@H]2O[C@H]2C[C@](C)(N)[C@H](O)[C@H](C)O2)Oc2ccc(cc2Cl)[C@H]1O [vancomycin],recurrent C. difficile disease (RCDD),50%
